Here are results for three compounds from US20060143718A1, “Transgenic animals for monitoring water quality” (priority 2000, published 2006).

For data set [1] the following is noted: cited from earlier work.
The test system of the next data set is AHRE reporter constructs. Nature of the data set: Transient transfection of LUC reporter constructs in zebrafish ZEM2S cells, AHRE constructs. The format is cell-based.
The subject of a further data set is MRE constructs. Nature of the data set: Transient transfection of LUC reporter constructs in zebrafish ZEM2S cells, MRE constructs. The format is cell-based.
The next data set concerns EPRE constructs. The data set can be described thus: Transient transfection of LUC reporter constructs in zebrafish ZEM2S cells, EPRE constructs. The format is cell-based.

Molecules are shown by their SMILES.

`Clc1cc2c(cc1Cl)Oc1cc(Cl)c(Cl)cc1O2` [TCDD, 2,3,7,8-tetrachlorodibenzo-p-dioxin]: in data set [1], the bioconcentration in fish is reported as 100,000 fold. Further, the bioconcentration in data set [1] (fish, in the food chain) is > 100,000 times. In addition, in the data set with AHRE reporter constructs, the “concentration achieving maximal LUC activity” value is on record as 10 nM.

On to `[Cl][Cd][Cl]` [CdCl2], for which the “concentration achieving maximal LUC activity” value with MRE constructs worked out at 30 µM.

As for `CC(C)(C)c1cc(O)ccc1O` [tBHQ], the “concentration achieving maximal LUC activity” value with EPRE constructs amounted to 10 µM.
